Experimental data from patent US8551980B2, “Substituted triazolopyridines” (Bayer Intellectual Property GmbH, priority 2009, dated 2013).

Target: T1, human kinase Mps-1 (Homo sapiens, UniProt P33981)
T1 construct: N-terminally GST-tagged human full length recombinant Mps-1 kinase; GST (N); purchased Invitrogen, Karslruhe, Germany PV4071
T1 sequence (P33981 1-857): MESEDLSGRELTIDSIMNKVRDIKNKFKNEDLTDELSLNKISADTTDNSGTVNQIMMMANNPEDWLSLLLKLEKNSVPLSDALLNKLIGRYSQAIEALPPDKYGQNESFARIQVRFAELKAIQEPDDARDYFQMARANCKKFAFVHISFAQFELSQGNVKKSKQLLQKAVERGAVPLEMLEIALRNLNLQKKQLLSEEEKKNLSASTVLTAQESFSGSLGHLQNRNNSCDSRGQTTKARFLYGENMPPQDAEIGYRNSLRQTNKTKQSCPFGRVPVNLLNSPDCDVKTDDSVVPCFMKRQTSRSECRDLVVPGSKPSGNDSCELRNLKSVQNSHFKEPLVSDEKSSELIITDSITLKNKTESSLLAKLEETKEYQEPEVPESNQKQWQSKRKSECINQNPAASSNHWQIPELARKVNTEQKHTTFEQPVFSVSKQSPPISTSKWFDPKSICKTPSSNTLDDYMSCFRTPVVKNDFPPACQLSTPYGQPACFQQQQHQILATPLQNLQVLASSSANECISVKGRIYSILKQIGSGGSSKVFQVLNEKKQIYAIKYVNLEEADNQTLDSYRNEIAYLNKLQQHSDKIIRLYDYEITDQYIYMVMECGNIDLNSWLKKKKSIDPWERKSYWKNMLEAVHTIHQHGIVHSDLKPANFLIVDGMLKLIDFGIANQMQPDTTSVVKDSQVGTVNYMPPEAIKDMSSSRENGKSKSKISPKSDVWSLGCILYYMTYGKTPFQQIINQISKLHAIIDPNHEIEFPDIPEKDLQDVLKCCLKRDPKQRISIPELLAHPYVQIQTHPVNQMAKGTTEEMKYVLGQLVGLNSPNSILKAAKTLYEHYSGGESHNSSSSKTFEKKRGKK
Test: Mps-1 kinase assay (TR-FRET)
Assay type: biochemical
Conditions: N-terminally GST-tagged human full length recombinant Mps-1; 10 μM ATP; 1 μM peptide substrate; 60 min at 22° C.; read-out: MPS1 Inhibition, IC50 in M
Method: The human kinase Mps-1 phosphorylates a biotinylated substrate peptide. Detection of the phosphorylated product is achieved by time-resolved fluorescence resonance energy transfer (TR-FRET) from Europium-labelled anti-phospho-Serine/Threonine antibody as donor to streptavidin labelled with cross-linked allophycocyanin (SA-XLent) as acceptor. Compounds are tested for their inhibition of the kinase activity.
N-terminally GST-tagged human full length recombinant Mps-1 kinase (purchased from Invitrogen, Karslruhe, Germany, cat. no PV4071) was used. […]
The resulting mixture was incubated 1 h at 22° C. to allow the binding of the phosphorylated peptide to the anti-phospho(Ser/Thr)-Europium-antibody. Subsequently the amount of phosphorylated substrate was evaluated by measurement of the resonance energy transfer from the Europium-labelled anti-phospho(Ser/Thr) antibody to the Streptavidin-XLent. Therefore, the fluorescence emissions at 620 nm and 665 nm after excitation at 350 nm was measured in a Viewlux TR-FRET reader (PerkinElmer LAS, Rodgau-Jügesheim, Germany). The “blank-corrected normalized ratio” (a Viewlux specific readout, similar to the traditional ratio of the emissions at 665 nm and at 622 nm, in which blank and Eu-donor crosstalk are subtracted from the 665 nm signal before the ratio is calculated) was taken as the measure for the amount of phosphorylated substrate. […]

IC50: 1.8 nM
SMILES: Cc1c(-c2ccc(NC(=O)Cc3ccccc3)cc2)ccc2nc(Nc3ccccc3C#N)nn12 [Example 1.1, N-(4-{2-[(2-cyanophenyl)amino]-5-methyl[1,2,4]triazolo[1,5-a]pyridin-6-yl}phenyl)-2-phenylacetamide]
